# From ChEMBL document CHEMBL1201862, “PubChem BioAssay data set” (2004)
# Calls of active or inactive are those of the source.
# Columns and labels:
# [1] = target: T1, Short transient receptor potential channel 4 (Mus musculus, UniProt Q9QUQ5); experiment: calcium entry via TRPC4 opening agents – cell-based, HEK293 TRPC4/mu-opioid, Fluo-4 calcium, dose response (AID 434937); assay type: functional
# T1 sequence (Q9QUQ5 whole entry): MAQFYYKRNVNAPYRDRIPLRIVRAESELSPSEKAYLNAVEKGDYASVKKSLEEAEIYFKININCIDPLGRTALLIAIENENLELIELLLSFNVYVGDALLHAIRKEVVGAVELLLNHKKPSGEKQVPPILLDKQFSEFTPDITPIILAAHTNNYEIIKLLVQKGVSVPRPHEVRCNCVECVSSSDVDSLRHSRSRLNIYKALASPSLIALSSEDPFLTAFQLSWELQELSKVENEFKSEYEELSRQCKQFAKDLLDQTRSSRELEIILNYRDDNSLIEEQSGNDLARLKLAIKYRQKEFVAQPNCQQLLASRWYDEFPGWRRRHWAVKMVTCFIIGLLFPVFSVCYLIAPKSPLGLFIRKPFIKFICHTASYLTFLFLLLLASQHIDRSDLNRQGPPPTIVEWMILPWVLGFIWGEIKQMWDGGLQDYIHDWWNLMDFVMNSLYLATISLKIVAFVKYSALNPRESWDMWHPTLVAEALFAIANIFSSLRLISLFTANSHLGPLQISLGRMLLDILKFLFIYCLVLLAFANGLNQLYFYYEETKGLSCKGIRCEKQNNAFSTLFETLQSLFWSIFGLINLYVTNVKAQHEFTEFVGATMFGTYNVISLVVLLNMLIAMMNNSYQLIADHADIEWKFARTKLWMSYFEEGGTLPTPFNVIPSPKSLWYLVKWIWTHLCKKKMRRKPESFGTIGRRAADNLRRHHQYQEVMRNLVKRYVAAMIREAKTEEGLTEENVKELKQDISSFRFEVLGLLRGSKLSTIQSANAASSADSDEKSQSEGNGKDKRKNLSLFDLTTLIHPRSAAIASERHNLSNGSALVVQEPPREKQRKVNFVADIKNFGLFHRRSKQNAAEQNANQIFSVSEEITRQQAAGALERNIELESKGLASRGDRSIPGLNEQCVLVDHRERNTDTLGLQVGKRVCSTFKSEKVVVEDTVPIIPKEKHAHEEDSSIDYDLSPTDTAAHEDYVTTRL
# [2] = target: Cytochrome P450 2C9 (Homo sapiens, UniProt P11712)
# [3] = target: Cytochrome P450 2D6 (Homo sapiens, UniProt P10635);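 note: CYP2D6 member of a cytochrome P450 panel assay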
# [4] = target: Cytochrome P450 2C19 (Homo sapiens, UniProt P33261); experiment: Cytochrome panel assay with activity outcomes. Panel member name: p450-cyp2c19 Compounds with AC50 equal or less than 10 uM are considered active; assay type: functional; details: read-out: AC50
# [5] = target: Cytochrome P450 3A4 (Homo sapiens, UniProt P08684);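 note: CYP3A4 tested as one member of a cytochrome P450 panel screen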
# [6] = test system: Vero; experiment: cells; assay type: functional; details: Chlorocebus sabaeus
# [7] = target: T1, Short transient receptor potential channel 4; experiment: block of DAMGO-driven TRPC4 calcium entry – cell-based, HEK293 TRPC4/mu-opioid, Fluo-4 calcium, dose response (AID 434942); assay type: functional;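 note: potency of inhibitors blocking the TRPC4 calcium response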
# [8] = cells; assay type: functional, cell-based
# [9] = cells; assay type: functional, cell-based; remark: listed apart in the source
# [10] = target: T2, Fatty acid synthase (Homo sapiens, UniProt P49327); experiment: inhibition of human FAS-TE enzyme activity – biochemical, endpoint fluorescence intensity, uHTS hits, dose response (AID 624327); assay type: functional;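 note: fluorescence from hydrolysis of an O-methyl fluorescein acyl ester substrate by the enzyme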
# [11] = test system: H9c2; experiment: cells; assay type: functional, cell-based; details: Rattus norvegicus, H9c2, Myocardium;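 note: confirmatory concentration-response retest of ultra-high-throughput screening hits for modulation of myocardial damage; cell death induced by hydrogen peroxide oxidative stress; compound pretreatment for 60 min then peroxide exposure for 2 h; potency is for protecting the cells against peroxide damage rather than for killing them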
# [12] = target: T2, Fatty acid synthase; experiment: inhibition of human FAS-TE enzyme activity – biochemical, kinetic fluorescence intensity, dose response (AID 624326); assay type: functional;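 note: rate of fluorescence rise from hydrolysis of a fluorogenic O-methyl fluorescein ester substrate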
# [13] = target: Melanocortin receptor 4 (Homo sapiens, UniProt P32245); experiment: inhibitors of MC4R cAMP signaling – cell-based, TR-FRET, biased antagonists, dose response (AID 602298); assay type: functional;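 note: antagonist potency against agonist-stimulated cAMP production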
# [14] = cAMP pathway inhibition in counterscreen cell line – TR-FRET cAMP detection, counter-screen for MC4R biased antagonist project, dose response (AID 602305); assay type: functional, cell-based;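 note: U2OS cells stimulated with forskolin near its EC80 as the cAMP inducer; potency is for inhibition of forskolin-stimulated cAMP signaling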
# [15] = Luminescence Cell-Based Dose Confirmation HTS to Identify Inhibitors of Platelet Dense Granule Release. [Related pubchem assays: 1663 (Primary HTS), 1678 (Summary of Project)]; assay type: functional
# [16] = target: Luciferin 4-monooxygenase (Photinus pyralis, UniProt P08659); experiment: inhibition of purified Photinus pyralis luciferase – biochemical, luminescence, dose response (AID 1891)
# Luciferin 4-monooxygenase, sequence (P08659 whole entry): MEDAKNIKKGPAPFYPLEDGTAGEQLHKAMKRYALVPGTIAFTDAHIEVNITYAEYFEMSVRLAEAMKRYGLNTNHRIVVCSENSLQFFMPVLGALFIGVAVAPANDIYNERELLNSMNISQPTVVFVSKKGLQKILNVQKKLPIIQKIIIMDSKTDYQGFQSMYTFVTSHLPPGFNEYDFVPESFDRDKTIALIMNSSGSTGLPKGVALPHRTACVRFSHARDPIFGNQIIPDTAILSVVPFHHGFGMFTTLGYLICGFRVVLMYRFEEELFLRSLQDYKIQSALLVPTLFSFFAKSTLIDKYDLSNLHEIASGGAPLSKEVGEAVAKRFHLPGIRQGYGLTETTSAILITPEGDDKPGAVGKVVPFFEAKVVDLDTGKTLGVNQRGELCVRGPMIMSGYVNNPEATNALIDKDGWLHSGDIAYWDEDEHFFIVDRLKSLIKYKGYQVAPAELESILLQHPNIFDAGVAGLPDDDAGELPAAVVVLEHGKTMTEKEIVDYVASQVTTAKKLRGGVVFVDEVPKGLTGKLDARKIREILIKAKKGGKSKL
# Cytochrome P450 2C9, sequence (P11712 whole entry): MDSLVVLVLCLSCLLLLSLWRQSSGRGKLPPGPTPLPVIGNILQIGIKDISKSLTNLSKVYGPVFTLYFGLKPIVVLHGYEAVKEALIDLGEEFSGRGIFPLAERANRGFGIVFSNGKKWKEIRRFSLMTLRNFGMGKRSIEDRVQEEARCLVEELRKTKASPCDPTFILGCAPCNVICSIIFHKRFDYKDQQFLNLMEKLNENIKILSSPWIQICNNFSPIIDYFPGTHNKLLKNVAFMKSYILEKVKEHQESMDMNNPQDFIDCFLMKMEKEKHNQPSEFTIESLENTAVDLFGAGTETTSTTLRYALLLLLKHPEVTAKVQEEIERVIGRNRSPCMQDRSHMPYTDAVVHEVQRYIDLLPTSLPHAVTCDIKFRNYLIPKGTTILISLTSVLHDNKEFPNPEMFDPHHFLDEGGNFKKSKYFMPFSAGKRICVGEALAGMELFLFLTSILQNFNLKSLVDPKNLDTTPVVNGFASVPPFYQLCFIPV
# T2 sequence (P49327 whole entry): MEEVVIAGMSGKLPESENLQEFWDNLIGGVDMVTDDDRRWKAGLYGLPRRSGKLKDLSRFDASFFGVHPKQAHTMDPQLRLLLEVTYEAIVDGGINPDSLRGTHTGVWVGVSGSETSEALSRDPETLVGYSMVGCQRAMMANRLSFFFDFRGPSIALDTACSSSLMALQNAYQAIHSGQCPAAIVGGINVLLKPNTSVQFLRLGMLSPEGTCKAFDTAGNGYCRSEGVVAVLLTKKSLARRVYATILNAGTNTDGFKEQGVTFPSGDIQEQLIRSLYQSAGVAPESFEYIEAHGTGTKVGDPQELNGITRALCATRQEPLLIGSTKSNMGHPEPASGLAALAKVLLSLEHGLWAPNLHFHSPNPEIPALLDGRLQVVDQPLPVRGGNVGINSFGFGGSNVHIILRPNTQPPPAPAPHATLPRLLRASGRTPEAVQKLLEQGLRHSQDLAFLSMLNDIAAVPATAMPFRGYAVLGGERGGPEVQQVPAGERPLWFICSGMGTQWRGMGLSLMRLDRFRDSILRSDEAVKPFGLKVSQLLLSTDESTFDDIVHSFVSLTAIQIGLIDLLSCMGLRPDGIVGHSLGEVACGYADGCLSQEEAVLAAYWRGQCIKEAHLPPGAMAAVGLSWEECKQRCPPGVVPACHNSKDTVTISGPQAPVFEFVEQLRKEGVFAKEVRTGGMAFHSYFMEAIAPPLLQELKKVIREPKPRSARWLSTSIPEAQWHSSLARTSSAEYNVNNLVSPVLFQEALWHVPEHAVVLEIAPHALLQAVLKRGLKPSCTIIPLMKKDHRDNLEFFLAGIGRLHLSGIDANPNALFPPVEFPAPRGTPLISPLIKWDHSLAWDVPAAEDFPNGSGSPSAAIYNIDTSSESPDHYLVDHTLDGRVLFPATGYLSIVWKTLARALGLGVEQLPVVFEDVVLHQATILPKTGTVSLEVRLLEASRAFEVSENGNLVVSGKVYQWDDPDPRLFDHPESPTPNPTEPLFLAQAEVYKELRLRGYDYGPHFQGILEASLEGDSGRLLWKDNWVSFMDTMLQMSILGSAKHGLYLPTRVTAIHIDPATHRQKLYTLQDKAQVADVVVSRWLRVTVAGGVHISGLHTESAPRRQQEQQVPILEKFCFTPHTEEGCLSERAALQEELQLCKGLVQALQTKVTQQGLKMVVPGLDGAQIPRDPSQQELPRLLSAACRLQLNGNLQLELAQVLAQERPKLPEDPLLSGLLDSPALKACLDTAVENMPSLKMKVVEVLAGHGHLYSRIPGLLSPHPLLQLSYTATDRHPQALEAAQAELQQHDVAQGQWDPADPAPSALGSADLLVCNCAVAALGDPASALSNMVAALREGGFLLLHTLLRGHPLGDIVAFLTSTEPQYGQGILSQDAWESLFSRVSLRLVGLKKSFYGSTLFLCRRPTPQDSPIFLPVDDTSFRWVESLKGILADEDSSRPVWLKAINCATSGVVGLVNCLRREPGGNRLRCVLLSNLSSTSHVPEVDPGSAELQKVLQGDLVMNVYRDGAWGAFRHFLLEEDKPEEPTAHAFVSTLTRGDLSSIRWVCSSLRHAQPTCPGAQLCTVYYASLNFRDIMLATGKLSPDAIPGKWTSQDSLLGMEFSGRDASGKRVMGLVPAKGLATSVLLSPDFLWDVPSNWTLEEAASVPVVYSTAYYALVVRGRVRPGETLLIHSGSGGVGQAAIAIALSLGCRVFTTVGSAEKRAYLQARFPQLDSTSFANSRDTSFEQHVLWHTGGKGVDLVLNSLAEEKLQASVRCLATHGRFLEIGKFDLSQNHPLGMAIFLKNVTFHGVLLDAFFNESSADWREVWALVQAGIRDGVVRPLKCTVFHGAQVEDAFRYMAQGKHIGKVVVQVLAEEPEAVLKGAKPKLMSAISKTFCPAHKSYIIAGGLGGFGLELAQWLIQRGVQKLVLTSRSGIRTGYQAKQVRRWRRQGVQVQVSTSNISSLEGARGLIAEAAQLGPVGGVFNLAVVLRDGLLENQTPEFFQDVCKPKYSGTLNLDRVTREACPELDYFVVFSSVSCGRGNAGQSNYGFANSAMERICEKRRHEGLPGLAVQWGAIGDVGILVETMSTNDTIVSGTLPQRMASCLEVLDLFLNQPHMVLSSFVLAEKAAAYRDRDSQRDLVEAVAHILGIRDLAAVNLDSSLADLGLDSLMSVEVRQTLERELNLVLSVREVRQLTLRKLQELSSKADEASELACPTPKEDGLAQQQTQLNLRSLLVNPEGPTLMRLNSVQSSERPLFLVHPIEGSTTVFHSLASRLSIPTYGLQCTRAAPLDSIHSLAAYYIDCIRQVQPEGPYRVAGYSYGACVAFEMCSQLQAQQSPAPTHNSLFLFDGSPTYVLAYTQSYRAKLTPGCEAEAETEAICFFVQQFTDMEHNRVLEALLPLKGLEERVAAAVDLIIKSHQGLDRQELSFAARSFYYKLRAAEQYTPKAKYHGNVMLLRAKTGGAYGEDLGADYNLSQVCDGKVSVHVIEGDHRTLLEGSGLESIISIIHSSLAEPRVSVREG
# Cytochrome P450 2D6, sequence (P10635 whole entry): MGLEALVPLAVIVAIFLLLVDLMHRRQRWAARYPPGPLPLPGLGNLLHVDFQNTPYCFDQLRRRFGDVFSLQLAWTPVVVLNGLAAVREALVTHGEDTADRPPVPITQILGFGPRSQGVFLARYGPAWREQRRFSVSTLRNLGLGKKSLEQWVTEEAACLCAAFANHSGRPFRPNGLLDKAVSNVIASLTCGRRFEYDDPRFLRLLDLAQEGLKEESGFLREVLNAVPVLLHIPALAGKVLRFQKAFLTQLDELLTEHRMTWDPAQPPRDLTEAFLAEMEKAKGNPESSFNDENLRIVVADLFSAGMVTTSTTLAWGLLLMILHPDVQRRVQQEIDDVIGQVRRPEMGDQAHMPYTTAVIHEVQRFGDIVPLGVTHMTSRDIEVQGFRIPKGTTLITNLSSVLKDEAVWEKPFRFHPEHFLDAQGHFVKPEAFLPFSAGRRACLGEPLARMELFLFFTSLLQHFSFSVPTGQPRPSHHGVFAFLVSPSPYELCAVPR
# Cytochrome P450 3A4, sequence (P08684 whole entry): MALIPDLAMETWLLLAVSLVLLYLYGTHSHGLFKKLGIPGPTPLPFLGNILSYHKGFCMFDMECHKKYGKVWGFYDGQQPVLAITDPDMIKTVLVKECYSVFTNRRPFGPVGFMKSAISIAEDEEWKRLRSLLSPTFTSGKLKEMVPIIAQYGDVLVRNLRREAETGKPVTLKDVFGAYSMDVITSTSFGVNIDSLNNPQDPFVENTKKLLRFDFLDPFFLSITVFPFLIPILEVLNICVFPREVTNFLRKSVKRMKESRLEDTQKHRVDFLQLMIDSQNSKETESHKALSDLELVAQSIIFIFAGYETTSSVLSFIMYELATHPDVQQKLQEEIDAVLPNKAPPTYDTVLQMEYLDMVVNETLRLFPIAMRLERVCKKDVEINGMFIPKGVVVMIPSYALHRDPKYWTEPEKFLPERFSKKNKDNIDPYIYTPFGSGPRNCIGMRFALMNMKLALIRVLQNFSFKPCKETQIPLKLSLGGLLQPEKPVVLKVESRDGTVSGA
# Cytochrome P450 2C19, sequence (P33261 whole entry): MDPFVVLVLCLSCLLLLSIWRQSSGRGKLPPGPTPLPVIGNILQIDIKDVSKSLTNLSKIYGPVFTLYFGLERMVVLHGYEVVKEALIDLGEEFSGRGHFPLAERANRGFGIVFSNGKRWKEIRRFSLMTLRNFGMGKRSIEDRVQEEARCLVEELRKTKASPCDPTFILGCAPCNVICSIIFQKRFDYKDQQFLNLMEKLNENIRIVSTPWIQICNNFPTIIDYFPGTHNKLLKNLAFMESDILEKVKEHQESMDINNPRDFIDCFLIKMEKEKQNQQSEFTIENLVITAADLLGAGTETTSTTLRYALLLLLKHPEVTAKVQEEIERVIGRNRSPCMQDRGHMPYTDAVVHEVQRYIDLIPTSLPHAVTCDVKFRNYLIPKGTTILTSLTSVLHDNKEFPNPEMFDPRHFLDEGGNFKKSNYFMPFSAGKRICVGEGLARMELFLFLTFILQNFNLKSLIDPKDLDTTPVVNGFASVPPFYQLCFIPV
structure (smiles),measurement,setting,value
Cc1sc2ncnc(NCC(c3ccco3)N(C)C)c2c1C (stereo not drawn),EC50,[1],841 nM (active)
FC(F)(F)c1ccccc1-c1nccc(N2CCNCC2)n1,AC50,[2],inconclusive
COc1ccc(C(=O)c2ccccc2)cc1Br,AC50,[3],22.4 µM (inconclusive)
same,AC50,[2],inconclusive
N#Cc1nc(-c2ccc(F)cc2)oc1N1CCCC1,AC50,[4],14.1 µM (inconclusive)
same,AC50,[5],14.1 µM (inconclusive)
same,AC50,[2],inconclusive
COc1cc(C(=O)NC(=S)NNC(=O)c2ccc3c(c2)OCO3)cc(OC)c1OC,CC50,[6],20.2 µM (active)
COc1ccc(C)cc1N(C(=O)c1snc(C(N)=O)c1N)C(C(=O)NC1CCCCC1)c1ccc(C)o1 (stereo not drawn),EC50,[7],211 nM (active)
CC1CCCN(c2c([N+](=O)[O-])c(=O)oc3ccccc23)C1 (stereo not drawn),IC50,[8],> 29.9 µM (inactive)
same,EC50,[9],> 29.9 µM (inactive)
COc1ccc(C2=NOC(COc3ccc4c(C)cc(=O)oc4c3)C2)c(OC)c1 (stereo not drawn),CC50,[6],7.23 µM (active)
Cc1ccc(-c2nnc3ccc(SCC(=O)N4CCCc5ccccc54)nn23)cc1,IC50,[10],4.07 µM (active)
same,IC50,[11],38.4 µM (inactive)
same,IC50,[12],5.68 µM (active)
Brc1cc2c(cc1COc1ccc(-c3nn[nH]n3)cc1)OCO2,EC50,[7],5310 nM (active)
COc1cc(OC)c2ccc(=O)oc2c1C(CC(=O)N1CCN(c2ccccc2)CC1)c1ccc2c(c1)OCO2 (stereo not drawn),IC50,[11],> 79 µM (inactive)
CCN(CC)S(=O)(=O)c1ccc(Cl)c(C(=O)OC2CC(C)OC2=O)c1 (stereo not drawn),IC50,[13],> 64.6 µM (inactive)
same,IC50,[14],> 64.6 µM (inactive)
CC(=O)c1c(C)nn(CC(=O)NC2CCCN(Cc3ccc(CC(C)C)cc3)C2)c1C (stereo not drawn),EC50,[15],> 112 µM (not active)
same,EC50,[16],> 112 µM (not active)
same,EC50,[1],1190 nM (active)
Cn1c(S)nnc1-c1cccc2ccccc12,EC50,[1],841 nM (active)
